Laboratory results from US8829014B2, “Thiazole and thiophene analogues, and their use in treating autoimmune diseases and cancers” (Board of Supervisors of Louisiana State University and …, priority 2006, dated 2014).
Marks after values point to notes of the source that are not given here.

How the values were obtained:
Assay type in all cases: cell-based
[1] = tested on: ARE from TNF-α; experiment: ARE screen: luciferase under post-transcriptional control of the ARE from TNF-α in RAW 264.7 cells; settings: six concentrations 10 nM-3300 nM, 24 hr (FIG. 10)
Source text: Development of ARE Screen: The regulation of TNF-α and other cytokines that are involved in inflammation and cancer progression occurs, in part, at the post-transcriptional level through an AU-rich element in the 3′ UTR called ARE. The ARE regulates both the stability and the translational efficiency of the mRNA and thus represents a potential target for novel anti-inflammatory molecules. The 3′ UTR from TNF-α, which contains the ARE, was cloned in the proper orientation and used to screen a compound library as reported in reference 55. Briefly, the 3′ UTR was cloned into pMS 110, and both the UTR and parental plasmids were stably transfected into RAW264.7 cells, a macrophage cell line. Individual clones were propagated and tested for luciferase activity. […] The UTR-containing clones responded to LPS by inducing luciferase expression similar to the endogenous increase in TNF-α following LPS stimulation. […] Thus, molecules identified with this screening assay are also useful as anti-cancer agents. By analogy, thalidomide, which has been reported to work in part through posttranscriptional regulation of TNF-α, has been approved for the treatment of multiple myeloma and is now in development for the treatment of cancers.
As in the eIF4E assay, AREs are responsible for post-transcriptional regulation of gene expression, influencing both translation and mRNA stability. […]

[2] = tested on: Human umbilical vein endothelial cells (HUVEC); experiment: LDH release cytotoxicity in HUVEC; settings: human, 48 h, 10 μM
Procedure: (§1) Additional compounds have also been tested for their ability to inhibit both TNF-α-induced NF-κB—expression and PMA-induced AP-1 expression. In both tests, the compound was added for 1 h, then the appropriate inducer was added, and luciferase activity was monitored 24 h later. Values were then normalized to the vehicle control, DMSO. Following the initial luciferase screens, studies were conducted to assess the cytotoxicity of the compounds in normal cells such as VSMC, HUVEC, or HPT cells. Human umbilical vein endothelial cells (HUVEC) represent the normal endothelium, vascular smooth muscle cells (VSMC) were represented by cells from the adult rat aorta, and human proximal tubule (HPT) cells represent the normal proximal tubule in vivo. These cells were grown to near confluency in multi-well plates, and were then treated for 48 h with either vehicle (0.1% DMSO) or 10 μM of each drug candidate. Following treatment, the media from the VSMC and HUVEC incubations were removed, and the amount of lactate dehydrogenase (LDH) released into the medium was determined with a commercial kit. LDH is normally confined to the cytosol, and its release represents “leakiness” of the plasma membrane. LDH activity was expressed as % increase over vehicle-treated cells. In another assay of viability, the treated VSMC and HUVEC were removed by trypsinization and treated with trypan blue, a dye that is taken up only by dead cells. The number of both live and dead cells was counted using an automated cell viability analyzer. The % decrease in numbers of viable cells was determined. Toxicity in the treated HPT cells was determined by the ethidium homodimer (EthHD) uptake assay. EthHD is a fluorescent dye that is excluded from live cells, but is taken up by cells that have lost permeability barriers. Inside the cell, EthHD produces a strong fluorescent signal, which is proportional to the number of dead cells. Results were expressed as a % increase in cell death over vehicle-treated cells. The lead compounds were also tested in two pairs of cell lines from either the skin or prostate, one tumorigenic and one non-tumorigenic, to test for any differences in toxicity or heightened sensitivity in the tumorigenic lines. The cells were treated for 48 h with vehicle (0.1% DMSO) or 10 μM of each drug candidate. Following treatment, the viability of the cells was determined by the MTT assay. In this assay, the MTT dye is converted only in viable cells by intracellular enzymes to a colorimetric product that is quantitated by a microplate reader.
(§2) For the results in Table 13, cells were grown to near confluency in multi-well plates, then treated for 48 h with either vehicle (0.1% DMSO) or 10 μM of each drug candidate. Following treatment, the media from the VSMC and HUVEC incubations were removed, and the amount of lactate dehydrogenase (LDH) released into the medium was determined with a commercial kit and expressed as a % increase over vehicle-treated cells. HPT toxicity was determined by the ethidium homodimer (EthHD) uptake assay. Inside the cell, EthHD produces a strong fluorescent signal, which is proportional to the amount of cell death, expressed as a % increase in cell death over vehicle-treated cells. The lead compounds were also tested in two pairs of cell lines from the skin or prostate, one tumorigenic and one non-tumorigenic, to test for differing toxicity or heightened sensitivity in the tumorigenic lines. The cells were treated for 48 h with vehicle (0.1% DMSO) or 10 μM of each drug candidate, and the viability of the cells was determined by the MTT assay, expressed as a % decrease in viability compared to vehicle-treated cells. The in vivo inflammation model measured the % inhibition of rat paw edema induced by carageenan injection.

[3] = tested on: vascular smooth muscle cells (VSMC); experiment: Trypan blue viability count in VSMC; settings: rat, 48 h, 10 μM
Procedure: as §1

[4] = tested on: Human umbilical vein endothelial cells (HUVEC); experiment: Trypan blue viability count in HUVEC; settings: human, 48 h, 10 μM
Procedure: as §1

[5] = tested on: human proximal tubule (HPT) cells; experiment: Ethidium homodimer (EthHD) uptake toxicity assay in HPT cells; settings: 10 μM, 48 h, relative to vehicle
Procedure: as §1, §2

[6] = MTT viability in skin cell line pair, tumorigenic and non-tumorigenic; settings: human

| SMILES | luciferase expression in the presence of ARE [1] | LDH release % Increase HUVEC [2] | Viable Cells % Decrease VSMC [3] | Viable Cells % Decrease HUVEC [4] | Cell Death (EthHD) % Increase HPT [5] | cytotoxicity at 48 h, 10 μM ([6]; Viability (MTT) % Decrease HaCaT) [%] | cytotoxicity at 48 h, 10 μM ([6]; Viability (MTT) % Decrease SRB12-p9) [%] |
| --- | --- | --- | --- | --- | --- | --- | --- |
| COc1ccc(-n2c(-c3sc(Nc4ccc(Cl)cc4)nc3-c3ccccc3)nc3ccccc3c2=O)cc1 [Example 225, 2-[2-(4-Chloro-phenylamino)-4-phenyl-thiazol-5-yl]-3-(4-methoxyphenyl)-3H-quinazolin-4-one] | substantial dose response |  |  |  |  |  |  |
| CNc1nc(C)c(-c2nc3ccccc3c(=O)n2-c2ccc(Cl)cc2)s1 [Example 244, 2-(4-Methyl-2-methylamino-thiazol-5-yl)-3-(4-chloro-phenyl)-3H-quinazolin-4-one] |  | 124# % | 70# % | 63# % | 180# % | 25 | 28 |
